From US20250134884A1, “METHOD AND PHARMACEUTICAL COMPOSITION FOR TREATING TYPE II DIABETES” (LUMISTAR BIOTECHNOLOGY, INC., priority 2023, published 2025)

Key:
MIN6 cells [1] = assay: Insulin secretion by hINS-GLuc luciferase reporter in MIN6 β cells under high glucose; assay type: cell-based, mouse; conditions: 20 mM glucose; for position among the top five compounds with significant increase in insulin secretion relative to high glucose stimulation: Table 2; for insulin secretion compared to the DMSO control group (luminescence signals from secreted insulin): MIN6 cells, FIG. 4
Method: With the inclusion of a luciferase-tagged insulin construct, hINS-GLuc allows for rapid quantification of secreted insulin in the supernatant for drug screening, unlike the traditional method of measuring insulin via ELISA. This quantification is achieved by measuring the luminescence (relative light units, RLU) upon adding the luciferin of coelenterazine.
For measuring insulin secretion, the medium will first be removed, and MIN6 cells will then be rinsed in Krebs-Ringer buffer (119 mM NaCl, 4.74 mM KCl, 2.54 mM CaCl2), 1.19 mM MgSO4, 1.19 mM KH2PO4, 25 mM NaHCO3, 10 mM Hepes, and 0.1% BSA, pH 7.4) before incubation with or without 20 mM glucose in Krebs-Ringer buffer. Compounds will be added at a final concentration of 25 μM for two hours. At the end of the incubation period, the buffer will be removed, and the cells will then be briefly centrifuged, with the supernatant collected for measuring insulin secretion. Measurement of insulin secretion and C-peptide release will be performed using either an insulin or C-peptide ELISA kit (FIG. 1A), according to the manufacturer's instructions (Mercodia), or by measuring luminescence after adding luciferin (FIGS. 2A, 2B, and 4).
With the establishment of reporter platform in β cell lines, 50 drugs screening with compounds associated with pathways associated with metabolic diseases are conducted. This included inhibitor or agonist against Glucagon-like peptide-1 (GLP-1), Cytochrome c oxidase (COX), Phosphodiesterase (PDE), AMP activated protein kinase (AMPK), dipeptidyl peptidase-4 (DPP-4), calcium and potassium channels, 5-hydroxytryptamine (5-HT) or estrogen/progestogen receptors. As compounds can either “trigger” insulin secretion (i.e., in low glucose condition) or “amplify” insulin secretion (i.e., in high glucose condition). To mimic hyperglycemic condition, the compounds that may amplify insulin secretion under high glucose conditions have been chosen.
To enable this screen, we adapted a 96 well format with β cells plated 74 hours prior to compound challenge in triplicates. Post-stimulation, supernatant was aliquoted and transferred into at least 2 empty plates for either storage or luciferase measurement with the addition of coelenterazine.
FIG. 4 is a relative light unit graph depicting the ability of various 5-HT1A receptor antagonists to induce insulin secretion in MIN6 cells in the presence of a high concentration of glucose.

MIN6 cells [2] = assay: Single cell Ca2+ flux monitoring with K-GECO1 reporter; assay type: cell-based, mouse; conditions: 20 mM glucose and 25 μM WAY-100635 Maleate, FIG. 3C
Description: One component of the reporter construct is a red fluorescent protein (RFP)-based Ca^2+ indicator (i.e., K-GECO1, reporter with an affinity for calcium ion) that is expressed within the cytoplasm. In this example, an inverted microscope (D1, Zeiss) equipped with a 63 Å˜objective lens (NA 1.4, Zeiss) and a multiwavelength LED light source (pE-4000, CoolLED) will be used. Blue (470 nm) and green (550 nm) excitation will be used to illuminate ChR2-EYFP and K-GECO1, respectively. The green fluorescent protein (GFP) filter set, and the red fluorescent protein (RFP) filter set will be used to confirm the expression of ChR2-EYFP and K-GECO1 in cells. […]
This allowed the detection of Ca^2+ influx into β cell as a consequence of calcium channel opening. β cells expressing the reporter construct were first stimulated with glucose (e.g., 20 mM glucose) to establish a baseline profile of Ca^2+ influx over time. […] FIG. 3A is the fluorescence intensity graph using the K-GECO1 reporter gene in Min6 cells to monitor glucose stimulation; and FIG. 3B is a representative image using the K-GECO1 reporter gene in Min6 cells after glucose stimulation. In FIG. 3A, the horizontal axis represents time (minutes), the vertical axis represents fluorescence intensity, and an arrow represents the point of stimulation and lines represent individual cells. […]

Row | Compound | position among the top five compounds with significant increase in insulin secretion relative to high glucose stimulation (MIN6 cells [1]; compound 25 μM, two hours) | Ca2+ influx profile (K-GECO1 fluorescence intensity) (MIN6 cells [2]) | insulin secretion compared to the DMSO control group (luminescence signals from secreted insulin) (MIN6 cells [1]) | insulin secretion relative to high glucose stimulation alone (luminescence, RLU) (MIN6 cells [1]; compound 25 μM, two hours, reporter expressing β cells, FIG. 2A)
1 | Exendin-4 | 1 | – | – | –
2 | COc1ccccc1N1CCN(CCN(C(=O)C2CCCCC2)c2ccccn2)CC1.O=C(O)/C=C\C(=O)O [WAY-100635 maleate] | 3 | significant change in Ca^2+ influx profile | significantly increased | promotes insulin secretion
3 | CC(C)Cn1c(=O)n(C)c(=O)c2[nH]cnc21 [IBMX] | 4 | – | – | –
4 | Cc1[nH]c(=O)c(C#N)cc1-c1ccncc1 [Milrinone] | 5 | – | – | –
5 | O=c1c(O)c(-c2ccc(O)cc2)oc2cc(O)cc(O)c12 [Kaempferol] | 2 | – | – | –
6 | CCC(=O)c1c(O)cc(O)cc1O [Flopropione] | – | – | did not show a significant increase | –
7 | C[C@H](CN(C(=O)c1ccc(C#N)cc1)c1ccccn1)N1CCN(c2cccc3c2OCCO3)CC1 [Lecozotan] | – | – | did not show a significant increase | –
